Assay results from patent EP3445382B1, “HARUNGANA MADAGASCARIENSIS LEAF EXTRACT FOR USE IN THE TREATMENT AND/OR PREVENTION OF ACNE” (Société d'Exploitation de Produits pour les Industries …, priority 2016, dated 2017).

Key:
[1] = target: T1, pancreatic lipase (PL; 3.1.1.3) (Homo sapiens, UniProt P16233); assay: lipase activity, biochemical test with radioactive triolein substrate; conditions: 1000 nM; 2 hours at 37 °C
T1 sequence (P16233 17-465): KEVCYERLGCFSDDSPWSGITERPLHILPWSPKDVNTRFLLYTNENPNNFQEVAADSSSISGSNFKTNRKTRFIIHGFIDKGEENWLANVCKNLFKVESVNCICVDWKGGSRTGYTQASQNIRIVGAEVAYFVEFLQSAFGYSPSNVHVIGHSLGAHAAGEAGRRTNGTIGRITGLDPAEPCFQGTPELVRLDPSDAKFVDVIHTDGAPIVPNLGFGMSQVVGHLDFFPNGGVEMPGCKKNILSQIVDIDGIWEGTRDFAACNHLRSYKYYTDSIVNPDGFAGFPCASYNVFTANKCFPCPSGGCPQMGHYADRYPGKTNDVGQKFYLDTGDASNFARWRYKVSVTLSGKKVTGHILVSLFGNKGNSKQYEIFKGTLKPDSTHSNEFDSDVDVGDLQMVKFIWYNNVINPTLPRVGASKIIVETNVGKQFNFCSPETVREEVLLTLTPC
Experimental: In the present example, the effect of HMA extract was evaluated on the lipase activity with a biochemical test using a radioactive substrate. The lipase catalyzes the hydrolysis of glycerol-ester (glycerides) and long chain fatty acid emulsions. The substrate of this enzyme is not a simple molecule but a non-aqueous phase of aggregated lipids. The usual method to quantify the lipase activity is titration (pH variation) which is not often efficient for the testing of inhibitory compounds and generates several artifacts. An alternative and more efficient method (followed in the present example) was to use a radioactive complex lipid substrate.
The quantification of lipase activity was undertaken as follows: Samples of HMA extract to be analyzed were prepared from a stock solution containing 5% (w/v) in glycerol/ultra-pure water (60/40).
The compound and the reference (Orlistat tested at 1000 nM) were incubated for 2 hours at 37 °C in presence of the enzyme, pancreatic lipase (PL; 3.1.1.3) at 125 U/ml and the radioactive substrate (3.34 µCi/tube, stable emulsion of triolein at 5.25 mM corresponding to a mix of cold and titriated triolein). A negative control was performed by incubating the substrate alone, without enzyme in the reaction mix, in order to determine the background signal. […]
(§1) Raw data were analyzed using Microsoft Excel® software. […]

[2] = test system: IL-12 release by LPS-stimulated PBMCs; assay: IL-12 release by LPS-stimulated PBMCs (ELISA); type: cell-based, human; conditions: 10^-7 M, LPS 1 µg/ml
Experimental: (§2) In the present example, the potential anti-inflammatory effect of HMA extract was investigated in human peripheral blood mononuclear cells (PBMCs) under stimulated conditions. More precisely, the effect of the test compound was evaluated on IL-8, IL-10 and IL-12 release by LPS-stimulated PBMCs using specific ELISA kits.
(§3) The quantification of anti-inflammatory effects was undertaken as follows: Samples of HMA extract to be analyzed were prepared from a stock solution containing 5% (w/v) in glycerol/ultra-pure water (60/40).
(§4) PBMCs were isolated from whole blood, seeded in 96-well plates and incubated in culture medium for 1 hour. The medium was then replaced by culture medium containing or not (stimulated control) the test compound or the reference compound, i.e., dexamethasone tested at 10^-7 M, and cells were pre-incubated for 1 hour. The inflammatory inducer, LPS (1 µg/ml) was then added and cells were incubated for 24 hours. A non-stimulated control was also performed in parallel. All experimental conditions were performed in n=3.
(§5) After incubation, the culture supernatants were collected in order to quantify IL-8, IL-10 and IL-12 release. […]
(§6) The quantity of IL-8, IL-10 and IL-12 released in the culture supernatants was measured using specific ELISA kits according to the supplier's instructions.
as §1

[3] = test system: IL-8 release by LPS-stimulated PBMCs; assay: IL-8 release by LPS-stimulated PBMCs (ELISA); type: cell-based; conditions: Homo sapiens, PBMC; 10^-7 M; LPS 1 µg/ml, 24 hours
Experimental: as §2, §3, §4, §5, §6, §1

[4] = test system: PBMCs; assay: viability assay (alamarBlue) on LPS-stimulated PBMCs; type: cell-based, human; conditions: 10^-7 M
Experimental: as §4
After incubation, the culture supernatants were collected in order to quantify IL-8, IL-10 and IL-12 release. A viability assay was performed on cells according to a standard alamarBlue® protocol.
After treatment, the cells were incubated with alamarBlue® reduced in resorufin via the mitochondrial reduction reactions of metabolically active cells. This transformation is proportional to the number of living cells. The optical density (OD) at 570nm was recorded using a microplate reader (VERSAmax, Molecular Devices).

[5] = test system: IL-10 release by LPS-stimulated PBMCs; assay: IL-10 release by LPS-stimulated PBMCs (ELISA); type: cell-based, human; conditions: 10^-7 M, LPS 1 µg/ml, 24 hours
Experimental: as §2, §3, §4, §5, §6, §1

[6] = acellular lipid peroxidation, TBARS production (hemin-induced, phosphatidylcholine micelles); type: biochemical; conditions: 10 µM, hemin 5 µM, 1 hour at 37 °C
Experimental: In the present example, the effect of HMA extract was evaluated on oxidative stress. More specifically, its protective effect against lipid peroxidation (acellular reaction) was evaluated by measuring the production of thiobarbituric acid reactive substances (TBARS). The quantification of anti-oxidant capacity was undertaken as follows: Samples of HMA extract to be analyzed were prepared from a stock solution containing 5% (w/v) in glycerol/ultra-pure water (60/40). […] Additional control conditions were also included in the experimental design: without inducer (non-activated condition), 'Interference' controls (test compound added to the reactive medium without micelles of lipids to assess a potential auto-fluorescence of compounds) and 'Quenching' controls (test compound added at the end of reaction to check for potential quenching of the signal directly by the test compounds). […] TBARS thus produced were then evaluated by fluorescence measurement (λex 540 nm; λem 590 nm). The results are expressed as TBARS equivalent, representing the antioxidant activity expressed as Trolox equivalent of the test compound. Raw data were analyzed using Microsoft Excel® software. […]

CCCCCCCCCCC[C@@H](C[C@@H]1OC(=O)[C@H]1CCCCCC)OC(=O)[C@H](CC(C)C)NC=O [Orlistat]
inhibition at 1 µM [1]: 41%

C[C@@H]1C[C@H]2[C@@H]3CCC4=CC(=O)C=C[C@]4(C)[C@@]3(F)[C@@H](O)C[C@]2(C)[C@@]1(O)C(=O)CO [Dexamethasone, dexamethasone]
% Inhibition ([2]; 24 hours): >100%
inhibition at 0.1 µM ([2]; Homo sapiens, PBMC, 24 h): 100%
inhibition at 0.1 µM [3]: 72%
Viability % stimulated control [4]: 88 % stimulated control
% Inhibition (I) or % stimulation (S) [5]: 32 (I) %
inhibition at 0.1 µM ([5]; Homo sapiens, PBMC, inhibition (I), read-out: % Inhibition (I) or % stimulation (S)): 32%

Cc1c(C)c2c(c(C)c1O)CCC(C)(C(=O)O)O2 (centres unmarked) [Trolox, 6-hydroxy-2,5,7,8-tetramethylchroman-2-carboxylic acid]
% Inhibition [6]: 72%
